pIC50: −log10 of the molar value.
Key:
[1] = tested on: GL261 glioblastoma cells; assay: In vivo labelling of GL261 glioma in mouse brain after i.p. injection; details: GL261 tumor-bearing mouse brain, 6 hours after injection, 6 days after implantation
From the text: We used in vitro and in vivo cells from a mouse high grade glioma cell line, GL261, Briefly, twenty-four 2- to 3-month-old female C57BIC mice were stereotactically implanted under deep general anesthesia (isoflurane supplemented with nitrous oxide) with 1×10^5 GL261 glioblastoma cells. The cells were stereotactically inoculated through a burr hole by a Hamilton syringe into the left striatum (coordinates: 1 mm anteroposterior and 1 mm lateral from bregma, at a depth of 3 mm). All experimental procedures were conducted in accordance with the European Communities Council Directive of 24 Nov. 1986 (86/609 EEC), Recommendation 18/06/2007, Dir. 2010/63/UE, and the Italian law for care and use of experimental animals (DL116/92) and were approved by the Italian Ministry of Health (prot. E669C.15) and the Bioethical Committee of the University of Turin. All animals were housed under a 12-hour light-dark cycle in an environmentally controlled room. All experiments were designed to minimize the numbers of animals used and their discomfort. In each experiment, animals with tumors were allocated to two groups and i.p. injected with probe 14 or probe 13. All drugs were administered intraperitoneally, and treatments were started days 6 after tumor implantation. […] Quantitative and phenotypic evaluations were made on images acquired with a Leica TCS SP5 confocal microscope.

[2] = target: T1, ALDH1A2 (Homo sapiens, UniProt O94788); assay: IC50 evaluation, NADH formation at 340 nm (Tecan SUNRISE); type: biochemical; details: 20 mM acetaldehyde, 500 μM NAD+, 15% DMSO, 2.7 μM isoenzyme, read-out: IC50
T1 construct: His-tag; made in house; host or cells: bacterial cells
T1 sequence (O94788 1-518): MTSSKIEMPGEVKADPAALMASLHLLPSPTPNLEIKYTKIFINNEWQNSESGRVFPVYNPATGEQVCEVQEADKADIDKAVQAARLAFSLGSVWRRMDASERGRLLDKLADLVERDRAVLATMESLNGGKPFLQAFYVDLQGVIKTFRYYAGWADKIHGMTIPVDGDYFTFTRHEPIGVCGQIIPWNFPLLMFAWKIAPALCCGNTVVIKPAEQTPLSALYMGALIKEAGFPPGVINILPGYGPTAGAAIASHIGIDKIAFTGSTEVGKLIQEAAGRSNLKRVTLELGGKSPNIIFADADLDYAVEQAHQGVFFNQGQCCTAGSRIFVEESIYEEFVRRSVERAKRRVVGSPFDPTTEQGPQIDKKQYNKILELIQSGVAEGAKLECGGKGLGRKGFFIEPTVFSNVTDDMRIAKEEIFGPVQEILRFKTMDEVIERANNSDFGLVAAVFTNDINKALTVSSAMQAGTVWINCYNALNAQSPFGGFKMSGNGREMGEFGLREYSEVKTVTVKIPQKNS
Protocol: (§1) A common protocol to express and purify all three members of the ALDHIA subfamily has been optimized. Briefly, induced cells, collected by centrifugation, were re-suspended in an appropriate volume of lysis buffer (50 mM Na2HPO4, 300 mM NaCl, 1 mM β-mercaptoethanol, 20 mM imidazole, pH 7.5) added of benzonase nuclease (250 U/μL) and Protease inhibitor cocktail from SIGMA. After ultracentrifugation, the clarified sample was purified by a His-tag affinity chromatography followed by size-exclusion chromatography, using an AKTA FPLC system, at 4° C. To evaluate the purity and homogeneity of the protein, after each purification step, eluted d fractions were analyzed by SDS-PAGE and the protein quantification was always determined by Bradford protein assay.
(§2) IC50 evaluation: on a Tecan—SUNRISE, probe 13 was tested in a serial dilution series from 200 μM to 3, 125 μM, against all the three isoenzymes. The recipe of reaction buffer was: 20 mM Tris HCl pH=8, 150 mM KCl, 1 mM B-mercaptoethanol, 500 μM NAD^+, 15% DMSO fixed, 20 mM acetaldehyde and 2.7 μM each isoenzyme. The analysis was conducted measuring the NADH formation, that has a specific absorbance wavelength (340 nm). The test was performed in triplicate with all the three isoenzymes.

[3] = target: T2, ALDH1A1 (Homo sapiens, UniProt P00352); assay: as above; type: biochemical; details: ALDH1A1; 20 mM acetaldehyde, 500 μM NAD+, 15% DMSO, 2.7 μM isoenzyme; read-out: IC50
T2 construct: His-tag; made in house; host or cells: bacterial cells
T2 sequence (P00352 1-501): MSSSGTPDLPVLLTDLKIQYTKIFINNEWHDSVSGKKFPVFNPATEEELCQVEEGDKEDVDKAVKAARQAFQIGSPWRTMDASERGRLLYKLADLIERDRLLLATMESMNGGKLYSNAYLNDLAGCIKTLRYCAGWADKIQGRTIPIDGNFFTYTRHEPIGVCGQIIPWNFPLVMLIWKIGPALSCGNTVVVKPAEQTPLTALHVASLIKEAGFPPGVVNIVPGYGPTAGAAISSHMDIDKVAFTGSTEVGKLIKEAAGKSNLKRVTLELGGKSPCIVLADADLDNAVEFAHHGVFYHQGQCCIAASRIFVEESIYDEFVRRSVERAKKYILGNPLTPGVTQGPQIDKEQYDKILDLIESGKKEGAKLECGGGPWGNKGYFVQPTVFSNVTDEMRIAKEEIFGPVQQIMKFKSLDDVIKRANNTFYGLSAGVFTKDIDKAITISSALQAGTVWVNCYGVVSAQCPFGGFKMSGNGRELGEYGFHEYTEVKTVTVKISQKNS
Protocol: as §1, §2

Row | Compound | probe fluorescence / penetration in tumor cells in vivo [1] | pIC50 [2] | pIC50 [3]
1 | COc1cc(/C=C/C(=O)/C=C(O)/C=C/c2ccc(OCc3cn(CCOc4ccc(C=O)cc4)nn3)c(OC)c2)ccc1O [Compound 13] | fluoresce in green | 3.88 | 3.71
2 | CCOC(=O)Cn1cc(COc2ccc(/C=C/C(O)=C/C(=O)/C=C/c3ccc(O)c(OC)c3)cc2OC)nn1 [Compound 14] | does not penetrate to any appreciable level | 4.03 | 3.94

From patent US20250281649A1, “PROBE DIRECTED TO ENZYME ALDH1A3 AND USE THEREOF IN THE DIAGNOSIS OF GLIOBLASTOMA” (Universita' Degli Studi Del Piemonte Orientale "A. Avogadro", priority 2021, published 2025)
